From the NIST ThermoML archive (doi:10.1016/j.tca.2012.02.017)
± gives the expanded uncertainty stated by the source.

Columns and labels:
[1] = molar heat capacity at constant pressure; xn = mol fraction of the nth substance listed; details: 101 kPa, Liquid, Large sample (1 g) DSC
[2] = molar heat capacity at constant pressure; details: 101.33 kPa, Liquid, Large sample (1 g) DSC

CC(O)COC(C)COC(C)CO (stereo unspecified) [2-[2-(2-hydroxypropoxy)propoxy]-1-propanol] + O
molar heat capacity at constant pressure ([1]; 303.15 K, x1 = 0.2): 158.9 ± 3.9 J/K/mol | molar heat capacity at constant pressure ([1]; 303.15 K, x1 = 0.4): 234.7 ± 5.7 J/K/mol | molar heat capacity at constant pressure ([1]; 303.15 K, x1 = 0.5): 271.9 ± 6.7 J/K/mol | molar heat capacity at constant pressure ([1]; 303.15 K, x1 = 0.6): 309 ± 7.6 J/K/mol | molar heat capacity at constant pressure ([1]; 303.15 K, x1 = 0.8): 381.4 ± 9.3 J/K/mol | molar heat capacity at constant pressure ([1]; 308.15 K, x1 = 0.2): 160.5 ± 3.9 J/K/mol | molar heat capacity at constant pressure ([1]; 308.15 K, x1 = 0.4): 237.2 ± 5.8 J/K/mol | molar heat capacity at constant pressure ([1]; 308.15 K, x1 = 0.5): 275.1 ± 6.7 J/K/mol | molar heat capacity at constant pressure ([1]; 308.15 K, x1 = 0.6): 312.1 ± 7.6 J/K/mol | molar heat capacity at constant pressure ([1]; 308.15 K, x1 = 0.8): 385.8 ± 9.5 J/K/mol | molar heat capacity at constant pressure ([1]; 313.15 K, x1 = 0.2): 162.2 ± 4 J/K/mol | molar heat capacity at constant pressure ([1]; 313.15 K, x1 = 0.4): 240 ± 5.9 J/K/mol | molar heat capacity at constant pressure ([1]; 313.15 K, x1 = 0.5): 278.1 ± 6.8 J/K/mol | molar heat capacity at constant pressure ([1]; 313.15 K, x1 = 0.6): 315.6 ± 7.7 J/K/mol | molar heat capacity at constant pressure ([1]; 313.15 K, x1 = 0.8): 389.6 ± 9.5 J/K/mol | molar heat capacity at constant pressure ([1]; 318.15 K, x1 = 0.2): 163.4 ± 4 J/K/mol | molar heat capacity at constant pressure ([1]; 318.15 K, x1 = 0.4): 241.6 ± 5.9 J/K/mol | molar heat capacity at constant pressure ([1]; 318.15 K, x1 = 0.5): 280.9 ± 6.9 J/K/mol | molar heat capacity at constant pressure ([1]; 318.15 K, x1 = 0.6): 317.9 ± 7.8 J/K/mol | molar heat capacity at constant pressure ([1]; 318.15 K, x1 = 0.8): 392.4 ± 9.6 J/K/mol | molar heat capacity at constant pressure ([1]; 323.15 K, x1 = 0.2): 164.9 ± 4 J/K/mol | molar heat capacity at constant pressure ([1]; 323.15 K, x1 = 0.4): 244.5 ± 6 J/K/mol | molar heat capacity at constant pressure ([1]; 323.15 K, x1 = 0.5): 283.2 ± 6.9 J/K/mol | molar heat capacity at constant pressure ([1]; 323.15 K, x1 = 0.6): 321.6 ± 7.9 J/K/mol | molar heat capacity at constant pressure ([1]; 323.15 K, x1 = 0.8): 396.3 ± 9.7 J/K/mol | molar heat capacity at constant pressure ([1]; 328.15 K, x1 = 0.2): 166.2 ± 4.1 J/K/mol | molar heat capacity at constant pressure ([1]; 328.15 K, x1 = 0.4): 246.6 ± 6 J/K/mol | molar heat capacity at constant pressure ([1]; 328.15 K, x1 = 0.5): 286.1 ± 7 J/K/mol | molar heat capacity at constant pressure ([1]; 328.15 K, x1 = 0.6): 324.7 ± 8 J/K/mol | molar heat capacity at constant pressure ([1]; 328.15 K, x1 = 0.8): 400.5 ± 9.8 J/K/mol | molar heat capacity at constant pressure ([1]; 333.15 K, x1 = 0.2): 167.8 ± 4.1 J/K/mol | molar heat capacity at constant pressure ([1]; 333.15 K, x1 = 0.4): 249.9 ± 6.1 J/K/mol | molar heat capacity at constant pressure ([1]; 333.15 K, x1 = 0.5): 289.3 ± 7.1 J/K/mol | molar heat capacity at constant pressure ([1]; 333.15 K, x1 = 0.6): 328.3 ± 8 J/K/mol | molar heat capacity at constant pressure ([1]; 333.15 K, x1 = 0.8): 404.1 ± 9.9 J/K/mol | molar heat capacity at constant pressure ([1]; 338.15 K, x1 = 0.2): 169.1 ± 4.1 J/K/mol | molar heat capacity at constant pressure ([1]; 338.15 K, x1 = 0.4): 252.2 ± 6.2 J/K/mol | molar heat capacity at constant pressure ([1]; 338.15 K, x1 = 0.5): 292.5 ± 7.2 J/K/mol | molar heat capacity at constant pressure ([1]; 338.15 K, x1 = 0.6): 331.3 ± 8.1 J/K/mol | molar heat capacity at constant pressure ([1]; 338.15 K, x1 = 0.8): 407.6 ± 10 J/K/mol | molar heat capacity at constant pressure ([1]; 343.15 K, x1 = 0.2): 170.7 ± 4.2 J/K/mol | molar heat capacity at constant pressure ([1]; 343.15 K, x1 = 0.4): 254.8 ± 6.2 J/K/mol | molar heat capacity at constant pressure ([1]; 343.15 K, x1 = 0.5): 295.5 ± 7.2 J/K/mol | molar heat capacity at constant pressure ([1]; 343.15 K, x1 = 0.6): 334.9 ± 8.2 J/K/mol | molar heat capacity at constant pressure ([1]; 343.15 K, x1 = 0.8): 411.8 ± 10 J/K/mol | molar heat capacity at constant pressure ([1]; 348.15 K, x1 = 0.2): 172.2 ± 4.2 J/K/mol | molar heat capacity at constant pressure ([1]; 348.15 K, x1 = 0.4): 257.4 ± 6.3 J/K/mol | molar heat capacity at constant pressure ([1]; 348.15 K, x1 = 0.5): 298.5 ± 7.3 J/K/mol | molar heat capacity at constant pressure ([1]; 348.15 K, x1 = 0.6): 338.2 ± 8.3 J/K/mol | molar heat capacity at constant pressure ([1]; 348.15 K, x1 = 0.8): 416 ± 10 J/K/mol | molar heat capacity at constant pressure ([1]; 353.15 K, x1 = 0.2): 173.9 ± 4.3 J/K/mol | molar heat capacity at constant pressure ([1]; 353.15 K, x1 = 0.4): 260.2 ± 6.4 J/K/mol | molar heat capacity at constant pressure ([1]; 353.15 K, x1 = 0.5): 302.1 ± 7.4 J/K/mol | molar heat capacity at constant pressure ([1]; 353.15 K, x1 = 0.6): 342.1 ± 8.4 J/K/mol | molar heat capacity at constant pressure ([1]; 353.15 K, x1 = 0.8): 420.3 ± 10 J/K/mol

OCCCOCCCO [4-oxa-1,7-heptanediol]
molar heat capacity at constant pressure ([2]; 303.15 K): 329 ± 6 J/K/mol | molar heat capacity at constant pressure ([2]; 313.15 K): 335.9 ± 5.6 J/K/mol | molar heat capacity at constant pressure ([2]; 323.15 K): 342 ± 5.5 J/K/mol | molar heat capacity at constant pressure ([2]; 333.15 K): 348.5 ± 5.4 J/K/mol | molar heat capacity at constant pressure ([2]; 343.15 K): 355.1 ± 5.5 J/K/mol | molar heat capacity at constant pressure ([2]; 353.15 K): 362.6 ± 5.6 J/K/mol
